Test system: LPS-induced TNF-α release (THP1 cells)
Assay: Inhibition of LPS-induced TNF-α release from THP1 cells (ELISA)
Type: cell-based
Conditions: Homo sapiens, THP-1, LPS 2 mg/ml, 3 hours at 37° C., TNF-α by ELISA, read-out: IC50 (concentration giving 50% inhibition of LPS-induced TNF-α release)
Protocol: THP1 cells were cultivated in RPMI 1640 medium supplemented with antibiotics and 10% foetal calf serum, harvested by centrifugation and diluted to 5×10^5 cells/ml in the above medium supplemented with 20 mM HEPES buffer. Aliquots ([…]) of the cell suspension were plated out on 96 well culture plates and incubated for 0.5 hour at 37° C. prior to the addition of the test compounds. The latter were dissolved in dimethyl sulphoxide (DMSO) to a stock concentration of 1.2 mM which was diluted with phosphate buffered saline/10% DMSO solution to provide test compounds in final concentrations of 10^-9 to 10^-5 M, with each concentration being tested in duplicate. The cells were incubated with the test compounds for 0.5 hour at 37° C., LPS (bacterial lipopolysaccharide) was then added to a concentration of 2 mg/ml and incubation was continued for 3 hours at 37° C. in an atmosphere containing 5% CO2 and at 95% relative humidity. After centrifugation at 260 g for 10 minutes an aliquot of each supernatant was removed and the amount of TNF-α was estimated by ELISA (R & D Systems Europe Ltd., Abingdon, England). The concentration of test compound which brings about 50% inhibition of LPS-induced TNF-α release (IC50) was computed from the dose-response curve.
The results obtained in the foregoing test with representative compounds of formula I are compiled in the following Table.

Structure (SMILES)	IC50
CC(C)C[C@@H](C(=O)NN(CC(C)C)C(=O)Cn1ccnc1)[C@H](C/C=C/c1ccccc1)C(=O)NO [C, (E)-2(R)-[1(S)-(Hydroxycarbamoyl)-4-phenyl-3-butenyl]-2'-[2-(1-imidazolyl)acetyl]-2'-isobutyl-4-methylvalerohydrazide]	201 nM
CC(C)C[C@@H](C(=O)NN(CC(C)C)C(=O)C1CCNCC1)[C@H](C/C=C/c1ccccc1)C(=O)NO [D, (E)-2(R)-[1(S)-(Hydroxycarbamoyl)-4-phenyl-3-butenyl]-2'-isobutyl-4-methyl-2'-[(4-piperidinyl)carbonyl]valerohydrazide]	345 nM
CC(C)C[C@@H](C(=O)NN(CC(C)C)C(=O)C(C)O)[C@H](C/C=C/c1ccccc1)C(=O)NO (mixture of isomers) [B, (E)-2(R)-[1(S)-(Hydroxycarbamoyl)-4-phenyl-3-butenyl]-2'-(2(RS)-hydroxypropionyl)-2'-isobutyl-4-methylvalerohydrazide]	589 nM
CC(C)C[C@@H](C(=O)NN(CC(C)C)C(=O)[C@@H](C)N)[C@H](C/C=C/c1ccccc1)C(=O)NO [A, (E)-2'-(D-Alanyl)-2(R)-[1(S)-(hydroxycarbamoyl)-4-phenyl-3-butenyl]-2'-isobutyl-4-methylvalerohydrazide]	303 nM
